The text below walks through data of ChEMBL document CHEMBL1201862, “PubChem BioAssay data set” (2004).

What all share (experiment): inhibition of tumour cell growth, NCI panel, 48 h
Experiment [1] has as its system SK-MEL-2.
For experiment [2], the system named is SK-MEL-5.
Experiment [3] has as its system PC-3.
The subject of experiment [4] is SK-MEL-28.
Experiment [5] has as its system K562.
The test system of experiment [6] is RXF 393.
Experiment [7] concerns M14.
Experiment [8] deals with CAKI-1.
The test system of experiment [9] is SF-268.
For experiment [10], the system named is LOX IMVI.
Experiment [11] deals with DU-145.
Experiment [12] has as its system NCI-H460.
The test system of experiment [13] is HL-60.
Experiment [14] relates to A549.
The test system of experiment [15] is BT-549.
For experiment [16], the system named is SF-539.
For experiment [17], the system named is MDA-MB-435.
The subject of experiment [18] is HOP-18.
Experiment [19] deals with SNB-75.
In experiment [20] the test system is Hs-578T.

The structures appear in SMILES notation.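 The compound was tested at five concentrations on cells cultured in 96-well plates, with a 48-hour exposure period. Abbreviation: GI50, concentration required for 50% inhibition of growth.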 The source made the active and inactive calls. Cut-off read from the data, not from the text of the source: active = GI50 up to about 1.1 µM and inactive = higher.

On to `C=C1C(=O)O[C@@H]2C[C@@H](C)[C@@H]3C=CC(=O)[C@@]3(C)[C@@H](O)[C@H]12` [HELENALIN], for which the GI50 is 1860 nM (inactive) in experiment [1]; 1300 nM (inactive) in [2]; 1920 nM (inactive) in [3]; 1760 nM (inactive) in experiment [4]; 622 nM (active) in experiment [5]; 466 nM (active) in experiment [6]. Further, the GI50 in experiment [7] was 1980 nM (inactive); in [8], 377 nM (active); in experiment [9], 3500 nM (inactive); in [10], 574 nM (active); in experiment [11], 3790 nM (inactive); in experiment [12], 1730 nM (inactive). In addition, the GI50 was 525 nM (active) in experiment [13]; 2900 nM (inactive) in experiment [14]; 1040 nM (active) in experiment [15]; 1990 nM (inactive) in experiment [16]; 1580 nM (inactive) in [17]; 2020 nM (inactive) in experiment [18]. Besides, the GI50 in experiment [19] is 35.2 nM (active).
On to `COc1cc2c(c(OC)c1OC)-c1ccc(SC)c(=O)cc1C(NC(=O)c1ccccc1)CC2` (centres undefined), for which the GI50 is < 10 nM (active) in experiment [1]; < 10 nM (active) in experiment [2]; < 10 nM (active) in experiment [3]; 305 nM (active) in [4]; < 10 nM (active) in experiment [5]; 44.4 nM (active) in experiment [6]. Besides, the GI50 in [7], in [8], in [9], in [10], in experiment [11] and in experiment [20] was < 10 nM (active) throughout. Also, the GI50 in [12] is < 10 nM (active); in experiment [13] it was < 10 nM (active); in [14] it was < 10 nM (active); in experiment [15] it was 15600 nM (inactive); in experiment [16], 11.8 nM (active); in [17] it was < 10 nM (active). For the same molecule, the GI50 was 77100 nM (inactive) in [18] and 167 nM (active) in experiment [19].
For the molecule `CC(C)=C1CCC(CN2CCOCC2)C1=O` (centres undefined), the GI50 in experiment [1] is 19000 nM (inactive); in [2] it was 15900 nM (inactive); in [3] it was 17500 nM (inactive); in [4] it was 14900 nM (inactive); in experiment [5], 1720 nM (inactive); in [6], 2070 nM (inactive). Further, the GI50 in experiment [7] is 3520 nM (inactive); in experiment [8] it was 348 nM (active); in experiment [9], 15200 nM (inactive); in experiment [10], 19900 nM (inactive); in [11], 16400 nM (inactive); in experiment [20], 28200 nM (inactive). For the same molecule, the GI50 in experiment [12] was 27200 nM (inactive); in experiment [13], 4120 nM (inactive); in experiment [14], 20400 nM (inactive); in experiment [15], 17300 nM (inactive); in experiment [16], 17400 nM (inactive); in [17] it was 15300 nM (inactive). For the same molecule, the GI50 was 9350 nM (inactive) in experiment [18] and 4720 nM (inactive) in [19].
In the case of `NN/C(Cc1ccccc1)=N\NO`, the GI50 in [1] was > 100000 nM (inactive); in experiment [2], 53700 nM (inactive); in experiment [4], > 100000 nM (inactive); in [5], 85700 nM (inactive); in experiment [6], > 100000 nM (inactive); in [7], 63800 nM (inactive). For the same molecule, the GI50 was > 100000 nM (inactive) in experiment [8]; > 100000 nM (inactive) in experiment [9]; 33300 nM (inactive) in [10]; > 100000 nM (inactive) in experiment [12]; > 100000 nM (inactive) in experiment [13]; > 100000 nM (inactive) in experiment [14]. Also, the GI50 in [16], in experiment [18] and in experiment [19] was > 100000 nM (inactive) throughout.
